According to publication PMC8923065, “Paeoniflorin reduce luxS/AI-2 system-controlled biofilm formation and virulence in Streptococcus suis” (Virulence, 2021):

Target: T1, LuxS (Streptococcus suis, UniProt B2CMA5)
T1 construct: recombinant from pET28-luxS in E. coli BL21(DE3), HisTrap purified
Test: Ellman assay of homocysteine, […] nm, Michaelis-Menten fit
Type: biochemical
Details: SRH as substrate, 6.25-25 ug/ml PF, pH 7.2, 37 °C; competitive; partial inhibition

T1 sequence (B2CMA5 entry or part of it): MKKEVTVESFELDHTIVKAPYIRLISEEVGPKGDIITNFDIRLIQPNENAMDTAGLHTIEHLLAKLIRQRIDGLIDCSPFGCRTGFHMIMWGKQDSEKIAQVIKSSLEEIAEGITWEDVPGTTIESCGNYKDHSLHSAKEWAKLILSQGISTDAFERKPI

For C[C@@]12C[C@@]3(O)O[C@@H](O1)[C@]1(COC(=O)c4ccccc4)[C@H]3C[C@@]12O[C@@H]1O[C@H](CO)[C@@H](O)[C@H](O)[C@H]1O [PF, paeoniflorin], the “Ellman assay of homocysteine, 412 nm, Michaelis-Menten fit” value was “the Km value of LuxS gradually increases, although the maximum reaction rate does not change”.
